In paper PMC8667043, “First-in-Class Inhibitors of the Ribosomal Oxygenase MINA53” (Journal of Medicinal Chemistry, 2021):

Experiments:
HL-60 = test: WST-1 cell proliferation assay; assay type: cell-based; details: Homo sapiens, APL, WST-1, 48 h, read-out: IC50 antiproliferative effect, HL-60
Method: (§1) The effect of compounds on cell proliferation of different leukemia and lymphoma cell lines OCI-AML3 (DSMZ ACC-582), IMS-M2 (a gift from Professor B. Falini, University of Perugia), OCI-AML2 (DSMZ, ACC-99), MV4–11 (ATCC, CRL-9591), Kasumi-1 (ATCC, CRL-2724), Karpass299 (DSMZ, ACC-31), U937 (ATCC, CRL1593.2), HL-60 (ATCC, CCL-240), and NB4 (DSMZ, ACC-207) was evaluated using the WST-1 assay (Roche Diagnostic GmbH Germany). The cells were plated, in triplicate, in 384-viewplate (Perkin Elmer) at a density of 5 × 10^3 cells/well in a final volume of 22.5 μL. The cells were incubated with increasing concentrations of compounds for 48 h at 37 °C, 5% CO2, then 2.5 μL of WST-1 reagent was added to each well for 1 h. For each cell line, dose–response curves were analyzed as nonlinear regression curves using GraphPad Prism (GraphPad Software Inc.) to obtain IC50 values.

IMS-M2 = test: WST-1 cell proliferation assay; assay type: cell-based; details: AML, WST-1, 48 h, read-out: IC50 antiproliferative effect, IMS-M2
Method: as §1

Karpass299 = test: WST-1 cell proliferation assay; assay type: cell-based; details: ALCL; WST-1, 48 h; read-out: IC50 antiproliferative effect, Karpass299
Method: as §1

Kasumi-1 = test: WST-1 cell proliferation assay; assay type: cell-based; details: Homo sapiens, AML, WST-1, 48 h, read-out: IC50 antiproliferative effect, Kasumi-1
Method: as §1

MV4-11 = test: WST-1 cell proliferation assay; assay type: cell-based; details: Homo sapiens, AML, WST-1, 48 h, read-out: IC50 antiproliferative effect, MV4-11
Method: as §1

NB4 = test: WST-1 cell proliferation assay; assay type: cell-based; details: Homo sapiens, NB-4; APL; WST-1, 48 h; read-out: IC50 antiproliferative effect, NB4
Method: as §1

OCI-AML2 = test: WST-1 cell proliferation assay; assay type: cell-based; details: Homo sapiens, AML, WST-1, 48 h, read-out: IC50 antiproliferative effect, OCI-AML2
Method: as §1

OCI-AML3 = test: WST-1 cell proliferation assay; assay type: cell-based; details: Homo sapiens, OCI-AML-3, WST-1, 48 h, read-out: IC50 antiproliferative effect, OCI-AML3
Method: as §1

U937 = test: WST-1 cell proliferation assay; assay type: cell-based; details: Homo sapiens, U-937; AML; WST-1, 48 h; read-out: IC50 antiproliferative effect, U937
Method: as §1

HeLa cervical carcinoma = test: MTT cell viability assay; assay type: cell-based; details: 72, 96, 120 h
Method: (§2) Human commercially available established cancer cell lines HT-29 colon carcinoma (ATCC, HTB-38), U-87MG glioblastoma (ATCC, HTB-14), and MNK-45 gastric cancer (a gift from Dr. M. Broggini, Mario Negri Institute) were cultured in RPMI medium (Euroclone, Milan, IT) supplemented with 10% inactivated fetal bovine serum (HyClone, Thermo Scientific, South Logan, UT), 1% L-glutamine (Euroclone), and 100 μg/mL penicillin/streptomycin (Euroclone). HEK293T and HeLa cells were cultured in Dulbecco’s Modified Eagle Medium (DMEM, Gibco) supplemented with 10% (v/v) fetal bovine serum (FBS, Sigma) and 100 international units/mL (IU/mL) penicillin and 100 μg/mL streptomycin (Gibco). The cells were routinely tested for mycoplasma contamination and STR-authenticated.
(§3) Twenty-four hours following seeding, exponentially growing cells were treated with the different compounds at concentrations ranging from 10 to 100 μM for 72–120 h. Aqueous DMSO (0.5%, v/v) was used as a control (untreated). Cell viability was determined by the 3-(4,5-dimethylthiazol-2-yl)-2,5-diphenyltetrazolium bromide (MTT) colorimetric assay (Sigma-Aldrich). In summary, exponentially growing cancer cells were seeded in sextuplicate in 96-well culture plates (1.5 × 10^3 cells/well). After 24 h, the compounds were added at concentrations ranging from 10 to 100 μM. The effect of compounds on cancer cell proliferation was assessed by measuring the MTT dye absorbance of the cells as reported.[52] […] The effect of different compounds or combinations (drug concentration ratio 1:20, doxorubicin: compound) on U-87MG cancer cell viability was assessed by measuring the MTT dye absorbance of cells. The interaction between doxorubicin (Doxo) and different compounds was evaluated based on the combination index (CI) using the CI equation through CalcuSyn software (Biosoft, Cambridge, U.K.). […]
(§4) Figure S17. Antiproliferative effects of M INA53 inhibitors on HeLa (A) and HEK293T (B) cells as determined by the MTT method after exposure for 72, 96, and 120 h to the negative control 1, and the MINA53 inhibitors 9 and 10. […]

HEK293T = test: MTT cell viability assay; assay type: cell-based, human; details: 72, 96, 120 h
Method: as §2, §3, §4

U-87MG cells [1] = test: Western blot of H2AX serine 139 phosphorylation (γ-H2AX); assay type: cell-based, human; set-up: dose or concentration left out as unconfirmed; details: time-dependent (2, 4, 8 h)
Method: Proteins were transferred onto nitrocellulose or PVDF membranes and incubated with rabbit γ-H2AX (#9718, Cell Signaling Technologies, MA) anti-GAPDH (Sc47724, Santa Cruz Biotechnology, Santa Cruz, CA), rabbit anti-RPL27A (Abcam, ab74731), goat anti-RPL8 (Abcam, ab63941), horseradish peroxidase (HRP)-conjugated anti-HA (Roche, 12013819001), and HRP-conjugated anti-β-actin (Abcam, ab-49900).
Figure S19. Western blot analysis and relative densitometric analysis of the phosphorylated form of H2AX (ser139) on U-8 7MG glioma cells exposed for the indicated times to 1 (negative control), […]
Doxorubicin was used as a positive control (0.5 μM, 8 h). GAPDH expression was used as a control loading. Results are express ed as f old changes over […]

U-87MG cells [2] = test: MTT cell viability, alone or in combination with doxorubicin; combination index; assay type: cell-based, human; details: for combination index value with doxorubicin: less than 1 synergistic, higher than 1 antagonist; for cell viability reduction in cotreatment with doxorubicin: 1 μM doxorubicin + 20 μM compound; for cell viability reduction in cotreatment with doxorubicin / cell viability, single compound treatment / sensitization of U-87MG cells to doxorubicin: 24 h
Method: Twenty-four hours following seeding, exponentially growing cells were treated with the different compounds at concentrations ranging from 10 to 100 μM for 72–120 h. Aqueous DMSO (0.5%, v/v) was used as a control (untreated). Cell viability was determined by the 3-(4,5-dimethylthiazol-2-yl)-2,5-diphenyltetrazolium bromide (MTT) colorimetric assay (Sigma-Aldrich). In summary, exponentially growing cancer cells were seeded in sextuplicate in 96-well culture plates (1.5 × 10^3 cells/well). After 24 h, the compounds were added at concentrations ranging from 10 to 100 μM. The effect of compounds on cancer cell proliferation was assessed by measuring the MTT dye absorbance of the cells as reported.[52] For combination treatments, the cells were treated with each of three compounds, either alone or in combination with doxorubicin. In particular, U-87MG cells were treated with doxorubicin alone or in combination with different MINA53 inhibitors for 24 h. The effect of different compounds or combinations (drug concentration ratio 1:20, doxorubicin: compound) on U-87MG cancer cell viability was assessed by measuring the MTT dye absorbance of cells. The interaction between doxorubicin (Doxo) and different compounds was evaluated based on the combination index (CI) using the CI equation through CalcuSyn software (Biosoft, Cambridge, U.K.). Synergism CI < 0.9, additivity 0.9 < CI < 1.1, antagonism CI > 1.1.

Structure (SMILES) | IC50 (HL-60) [µM] | IC50 (IMS-M2) [µM] | IC50 (Karpass299) [µM] | IC50 (Kasumi-1) [µM] | IC50 (MV4-11) [µM] | IC50 (NB4) [µM] | IC50 (OCI-AML2) [µM] | IC50 (OCI-AML3) [µM] | IC50 (U937) [µM] | effect on cell viability, HeLa (HeLa cervical carcinoma) | effect on cell viability, HEK293T (HEK293T) | γ-H2AX (H2AX serine 139 phosphorylation) (U-87MG cells [1]) | combination index value with doxorubicin (U-87MG cells [2]) | cell viability reduction in cotreatment with doxorubicin (U-87MG cells [2]) | cell viability, single compound treatment (U-87MG cells [2]) | sensitization of U-87MG cells to doxorubicin (U-87MG cells [2])
O=C(O)c1c[nH]c(=S)[nH]c1=O [compound 1] | > 100 | > 100 | > 100 | > 100 | > 100 | > 100 | > 100 | > 100 | > 100 | no effect | no effect | not increased | higher than 1 | – | – | –
O=C(O)c1cnc(SCCc2ccccc2)[nH]c1=O [compound 9, 2-(Phenethylthio)-3,4-dihydro-4-oxopyrimidine-5-carboxylic Acid] | 73 ± 3 | > 100 | > 100 | > 100 | > 100 | 91 ± 3 | > 100 | > 100 | > 100 | sensitive | sensitivity | strong γ-H2AX increase | less than 1 | around 75% | reduced cell viability in a dose-dependent manner | dose-dependent sensitization
O=C(O)c1cnc(SCCCc2ccccc2)[nH]c1=O [compound 10, 2-((3-Phenylpropyl)thio)-3,4-dihydro-4-oxopyrimidine-5-carboxylic Acid] | 14 ± 2 | > 100 | > 100 | > 100 | > 100 | 94 ± 4 | > 100 | > 100 | > 100 | sensitive | sensitivity | strong γ-H2AX increase | less than 1 | around 75% | reduced cell viability in a dose-dependent manner | dose-dependent sensitization
